# Test results as given in PMC11684019, “Unveiling the Antimycobacterial Potential of Novel 4-Alkoxyquinolines: Insights into Selectivity, Mechanism of Action, and In Vivo Exposure” (Journal of Medicinal Chemistry, 2024).
# Tested on: M. tuberculosis H37Rv strain
# Experiment: microbe, parasite or virus in culture
# Assay type: cell-based, Mycobacterium tuberculosis
# Details: M. tuberculosis H37Rv, resazurin-based assay
row,Structure (SMILES),MIC [µM]
1,"COc1ccc2nc(C)cc(OCCCNc3ccccc3)c2c1 [8a, N-(3-((6-methoxy-2-methylquinolin-4-yl)oxy)propyl)aniline]",0.25
2,"COc1ccc2nc(C)cc(OCCCNc3ccc(F)cc3)c2c1 [8b, 4-Fluoro-N-(3-((6-methoxy-2-methylquinolin-4-yl)oxy)propyl)aniline]",0.47
3,"COc1ccc2nc(C)cc(OCCCNc3ccc(Cl)cc3)c2c1 [8c, 4-Chloro-N-(3-((6-methoxy-2-methylquinolin-4-yl)oxy)propyl)aniline]",0.22
4,"COc1ccc2nc(C)cc(OCCCNc3ccc(C(F)(F)F)cc3)c2c1 [8f, N-(3-((6-methoxy-2-methylquinolin-4-yl)oxy)propyl)-4-(trifluoromethyl)aniline]",3.20
5,"COc1ccc2nc(C)cc(OCCCNc3ccc(OC(F)(F)F)cc3)c2c1 [8g, N-(3-((6-methoxy-2-methylquinolin-4-yl)oxy)propyl)-4-(trifluoromethoxy)aniline]",0.20
6,"COc1ccc2nc(C)cc(OCCCNc3ccc(C)cc3)c2c1 [8h, N-(3-((6-methoxy-2-methylquinolin-4-yl)oxy)propyl)-4-methylaniline]",0.24
7,"COc1ccc2nc(C)cc(OCCCNc3ccc(C(C)C)cc3)c2c1 [8j, 4-Isopropyl-N-(3-((6-methoxy-2-methylquinolin-4-yl)oxy)propyl)aniline]",0.11
8,"Cc1cc(OCCCNc2ccc(Cl)cc2)c2cc(Cl)ccc2n1 [8k, 4-Chloro-N-(3-((6-chloro-2-methylquinolin-4-yl)oxy)propyl)aniline]",0.22
9,"Cc1cc(OCCCNc2ccc(OC(F)(F)F)cc2)c2cc(Cl)ccc2n1 [8m, N-(3-((6-Chloro-2-methylquinolin-4-yl)oxy)propyl)-4-(trifluoromethoxy)aniline]",0.19
10,"CCc1cc(OCCCNc2ccc(Cl)cc2)c2cc(Cl)ccc2n1 [8o, 4-Chloro-N-(3-((6-chloro-2-ethylquinolin-4-yl)oxy)propyl)aniline]",0.11
11,"CCc1cc(OCCCNc2ccc(Br)cc2)c2cc(Cl)ccc2n1 [8p, 4-Bromo-N-(3-((6-chloro-2-ethylquinolin-4-yl)oxy)propyl)aniline]",0.38
12,"CCc1ccc(NCCCOc2cc(CC)nc3ccc(Cl)cc23)cc1 [8q, N-(3-((6-chloro-2-ethylquinolin-4-yl)oxy)propyl)-4-ethylaniline]",0.22
13,"Cc1cc(OCCCNc2ccc(Br)cc2)c2cc(Br)ccc2n1 [8s, 4-Bromo-N-(3-((6-bromo-2-methylquinolin-4-yl)oxy)propyl)aniline]",0.35
14,"CCc1cc(OCCCNc2ccc(Cl)cc2)c2cc(Br)ccc2n1 [8u, N-(3-((6-bromo-2-ethylquinolin-4-yl)oxy)propyl)-4-chloroaniline]",0.19
15,"CCc1cc(OCCCNc2ccc(Br)cc2)c2cc(Br)ccc2n1 [8v, 4-Bromo-N-(3-((6-bromo-2-ethylquinolin-4-yl)oxy)propyl)aniline]",0.34

# Same assay, conditions: Mycobacterium tuberculosis, H37RV
row,Structure (SMILES),MIC [µM]
1,"NNC(=O)c1ccncc1 [INH, isoniazid, reference compound]",2.3

# Same assay, conditions: Mycobacterium tuberculosis; M. tuberculosis H37Rv, resazurin-based assay
row,Structure (SMILES),MIC [µM]
1,"CCc1nc2ccc(Cl)cn2c1C(=O)NCc1ccc(N2CCC(c3ccc(OC(F)(F)F)cc3)CC2)cc1 [Q203, telacebec, reference compound]",0.009

# Tested on: M. tuberculosis H37Rv strain in murine macrophage RAW 264.7 cells
# Experiment: not given
# Assay type: cell-based, Mycobacterium tuberculosis
# Details: not given
Structure (SMILES),Kind of effect on intracellular growth of M. tuberculosis H37Rv,Log10 CFU/well (Mean ± SD)
"NNC(=O)c1ccncc1 [INH, isoniazid, reference compound]",bactericidal effect,"2.25 ± 0.15 ^c^, ^d Log10 CFU/well"

# Same assay, conditions: listed as isoniazid
row,Structure (SMILES),Log10 CFU/well (Mean ± SD)
1,"NNC(=O)c1ccncc1 [INH, isoniazid, reference compound]",2.25
